The source of these data is patent US7179825B2, “Retinoic acid mimetic anilides” (Janssen Pharmaceutica N.V., priority 1997, dated 2007).

For assay [1], the system named is metabolism of retinoic acid in human breast cancer cells. The assay can be described thus: Inhibition of retinoic acid (RA) metabolism (Example C.1). Conditions: MCF-7 human breast cancer cells, 3H-RA as substrate, concentration needed to reduce the amount of metabolites to 50% of the control. Format: cell-based. In a few lines:
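Test compound (in 1% DMSO) added at several concentrations to MCF-7 cell suspensions fed ³H-RA, after RA induction of metabolism one day earlier. Scintillation counting of the separated polar metabolite fraction; IC50 = concentration giving 50% of control metabolite level.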

In another assay the test system is Ovariectomized rats. The assay can be described thus: Vaginal keratinization test on ovariectomized rats (Example C.2). Format: in vivo. Conditions: estradiol undecylate induced keratinization, per os once daily on days 1-3, active dose = 50% of rats show complete suppression. In a few lines: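 Value is the lowest oral dose (mg/kg) at which half of tested rats show complete suppression of estradiol undecylate-induced vaginal keratinization by histology. Ovariectomized rats received 100 μg/100 g estradiol undecylate s.c., then compound or PEG 200 vehicle p.o. daily for three days; sacrifice one day later.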

The term IC50 denotes the concentration at which inhibition is half-maximal.

With `CC(C)C(c1ccc(NC(=O)C(=Cc2ccccc2)c2ccccc2)cc1)n1ccnc1` (stereo not drawn) [Compound 454], in assay [1], the IC50 amounted to 52.5 nM. For the same compound, the “LAD (lowest active dose)” value with Ovariectomized rats is recorded as above 20.00 mg/kg.
On to `CC(C)/C(=C\c1ccccc1)C(=O)Nc1ccc(C(C(C)C)n2ccnc2)cc1` (stereo not drawn) [Compound 471], for which the IC50 in assay [1] was above 100 nM. In addition, the “LAD (lowest active dose)” value in the assay with Ovariectomized rats is on record as above 10.00 mg/kg.
Taken in the same sequence, the figures for `C/C(=C\c1ccccc1)C(=O)Nc1ccc(C(CCC(C)C)n2ccnc2)cc1` (stereo not drawn) [Compound 475] were above 100 nM and above 10.00 mg/kg.
Regarding `CC(=Cc1ccccc1)C(=O)Nc1ccc(C(CC(C)(C)C)n2ccnc2)cc1` (stereo not drawn) [Compound 476], the IC50 in assay [1] was determined as 35.5 nM. Besides, the “LAD (lowest active dose)” value with Ovariectomized rats is above 10.00 mg/kg.
As for `C/C(=C\c1ccccc1)C(=O)Nc1ccc(C(/C=C/C(C)C)n2ccnc2)cc1` (stereo not drawn) [Compound 479], the IC50 in assay [1] was above 100 nM. In addition, the “LAD (lowest active dose)” value in the assay with Ovariectomized rats is listed as above 10.00 mg/kg.
As for `CCCC(CCC)C(c1ccc(NC(=O)/C(C)=C/c2ccccc2)cc1)n1ccnc1` (stereo not drawn) [Compound 486], the IC50 in assay [1] stood at 27.7 nM. Besides, the “LAD (lowest active dose)” value with Ovariectomized rats is 5.00 mg/kg.
Taken in the same sequence, the figures for `CC(=O)Nc1ccc(C(c2cccc(C(F)(F)F)c2)n2ccnc2)cc1` (stereo not drawn) [Compound 524] were above 1000 nM and 20.00 mg/kg.
For the compound `C/C(=C\c1ccncc1)C(=O)Nc1ccc(C(C(C)C)n2ccnc2)cc1` (stereo not drawn) [Compound 576], the IC50 in assay [1] was 20.1 nM. Besides, the “LAD (lowest active dose)” value with Ovariectomized rats is on record as 10.00 mg/kg.
For the compound `C/C(=C\c1ccc(C(F)(F)F)cc1)C(=O)Nc1ccc(C(C(C)C)n2ccnc2)cc1` (stereo not drawn) [Compound 580], the IC50 in assay [1] amounted to 31.3 nM. The “LAD (lowest active dose)” value with Ovariectomized rats was found to be 10.00 mg/kg.
For the compound `C/C(=C\C1CCCCC1)C(=O)Nc1ccc(C(C(C)C)n2ccnc2)cc1` (stereo not drawn) [Compound 581], the IC50 in assay [1] was above 100 nM. Moreover, the “LAD (lowest active dose)” value in the assay with Ovariectomized rats is 20.00 mg/kg.
Taken in the same sequence, the figures for `COc1cccc(/C=C(\C)C(=O)Nc2ccc(C(C(C)C)n3ccnc3)cc2)c1` (stereo not drawn) [Compound 584] were 6.51 nM and 10.00 mg/kg.
`C/C(=C\C(C)C)C(=O)Nc1ccc(C(C(C)C)n2ccnc2)cc1` (stereo not drawn) [Compound 588]: the IC50 in assay [1] is 48.8 nM. Further, the “LAD (lowest active dose)” value with Ovariectomized rats is listed as 10.00 mg/kg.
For `CC(=Cc1cc2ccccc2o1)C(=O)Nc1ccc(C(C(C)C)n2ccnc2)cc1` (stereo not drawn) [Compound 600], the IC50 in assay [1] worked out at 36.7 nM. Moreover, in the assay with Ovariectomized rats, the “LAD (lowest active dose)” value is on record as above 10.00 mg/kg.
Taken in the same sequence, the figures for `CC(=O)Nc1ccc(/C=C(\C)C(=O)Nc2ccc(C(C(C)C)n3ccnc3)cc2)cc1` (stereo not drawn) [Compound 612] were 16.8 nM and 10.00 mg/kg.
As to `CC(=O)Nc1ccc(C(c2cccc(C(F)(F)F)c2)n2cncn2)cc1` (stereo not drawn) [Compound 613], the 50% inhibitory concentration (IC50) in assay [1] stood at 1800 nM. Moreover, the “LAD (lowest active dose)” value in the assay with Ovariectomized rats was above 20.00 mg/kg.
Taken in the same sequence, the figures for `CC(=O)Nc1ccc(C(c2cccc(F)c2)n2cncn2)cc1` (stereo not drawn) [Compound 615] were above 1000 nM and above 20.00 mg/kg.
Taken in the same sequence, the figures for `COc1ccc(CC(=O)Nc2ccc(C(n3cncn3)C(C)(C)C)cc2)cc1OC.O` (stereo not drawn) [Compound 642] were 1.16 nM and 2.50 mg/kg.
Turning to `CC(C)C(c1ccc(NC(=O)Cc2ccccc2)cc1)n1ccnc1` (stereo not drawn) [Compound 650], the IC50 in assay [1] came to 4.86 nM. In the assay with Ovariectomized rats, the “LAD (lowest active dose)” value worked out at 10.00 mg/kg.
Taken in the same sequence, the figures for `CC(C)C(c1ccc(NC(=O)Cc2ccc(Cl)cc2)cc1)n1ccnc1` (stereo not drawn) [Compound 651] were 10.5 nM and 5.00 mg/kg.
Regarding `CC(C)C(c1ccc(NC(=O)Cc2cccc(F)c2)cc1)n1ccnc1` (stereo not drawn) [Compound 656], in assay [1], the IC50 worked out at 1.47 nM. Besides, in the assay on Ovariectomized rats, the “LAD (lowest active dose)” value is 10.00 mg/kg.
On to `CC(C(=O)Nc1ccc(C(C(C)C)n2ccnc2)cc1)c1ccccc1` (stereo not drawn) [Compound 657], for which the IC50 in assay [1] amounted to 5.36 nM. Moreover, the “LAD (lowest active dose)” value in the assay on Ovariectomized rats is above 10.00 mg/kg.
Taken in the same sequence, the figures for `COc1ccc(CC(=O)Nc2ccc(C(C(C)C)n3ccnc3)cc2)cc1` (stereo not drawn) [Compound 662] were 0.358 nM and 5.00 mg/kg.
Consider `CC(C)C(c1ccc(NC(=O)Cc2ccccc2Cl)cc1)n1ccnc1` (stereo not drawn) [Compound 664], for which, in assay [1], the IC50 was 1.56 nM. The “LAD (lowest active dose)” value in the assay with Ovariectomized rats is 5.00 mg/kg.
On to `CC(C)C(c1ccc(NC(=O)Cc2ccc(O)cc2)cc1)n1ccnc1` (stereo not drawn) [Compound 668], for which the IC50 in assay [1] came to 3.16 nM. Also, the “LAD (lowest active dose)” value in the assay on Ovariectomized rats was 5.00 mg/kg.
With `CC(C)C(c1ccc(NC(=O)C(O)c2ccc(Cl)cc2)cc1)n1ccnc1` (stereo not drawn) [Compound 669], in assay [1], the IC50 came to 8.66 nM. The “LAD (lowest active dose)” value with Ovariectomized rats was 5.00 mg/kg.
As to `O=C(C=C(c1ccccc1)c1ccccc1)Nc1ccc(C(c2ccc(Cl)cc2)c2ccccn2)cc1` (stereo not drawn) [Compound 680], in assay [1], the IC50 worked out at 12.1 nM. Moreover, in the assay with Ovariectomized rats, the “LAD (lowest active dose)” value is above 20.00 mg/kg.
As for `C/C(=C\c1ccccc1)C(=O)Nc1ccc(C(c2ccccn2)C(C)C)cc1` (stereo not drawn) [Compound 682], the IC50 in assay [1] was above 100 nM. The “LAD (lowest active dose)” value in the assay with Ovariectomized rats is listed as above 20.00 mg/kg.
Take `Cc1nccn1C(c1ccc(NC(=O)Cc2ccc(Cl)cc2)cc1)C(C)C` (stereo not drawn) [Compound 695]: the IC50 in assay [1] is above 100 nM. In addition, in the assay with Ovariectomized rats, the “LAD (lowest active dose)” value is on record as above 10.00 mg/kg.
As for `CC(C)C(c1ccc(NC(N)=Nc2ccccc2)cc1)n1ccnc1` (stereo not drawn) [Compound 743], the IC50 in assay [1] came to 11 nM. Further, the “LAD (lowest active dose)” value in the assay on Ovariectomized rats was above 10.00 mg/kg.
Taken in the same sequence, the figures for `CC(C)C(c1ccc(NC(=O)Cc2ccc(Cl)cc2)cc1)(C(C)C)n1cncn1` [Compound 745] were 3.87 nM and above 5.00 mg/kg.
Regarding `CC(C)C(c1ccc(NC(=O)Nc2cccc(F)c2)cc1)(C(C)C)n1ccnc1` [Compound 746], the IC50 in assay [1] was above 100 nM. Moreover, in the assay with Ovariectomized rats, the “LAD (lowest active dose)” value was above 5.00 mg/kg.
Taken in the same sequence, the figures for `CC(=Cc1ccccc1)C(=O)Nc1ccc(C(C(C)C)n2cnnc2)cc1` (stereo not drawn) [Compound 749] were 126 nM and above 20.00 mg/kg.
For the compound `C/C(=C\c1ccccc1)C(=O)Nc1ccc(C(C(C)C)(C(C)C)n2ccnc2)cc1` [Compound 751], the IC50 in assay [1] came to 67 nM. Also, in the assay on Ovariectomized rats, the “LAD (lowest active dose)” value was 10.00 mg/kg.
On to `CC(=Cc1ccccc1)C(=O)Nc1ccc(C(C)(C)n2ccnc2)cc1` [Compound 753], for which, in assay [1], the IC50 was above 100 nM. Also, the “LAD (lowest active dose)” value with Ovariectomized rats is on record as above 10.00 mg/kg.
Turning to `CCC(c1ccc(NC(=O)C(C)=Cc2ccccc2)cc1)(C(C)C)n1ccnc1` (stereo not drawn) [Compound 758], in assay [1], the IC50 is 1.88 nM. Moreover, in the assay on Ovariectomized rats, the “LAD (lowest active dose)” value is given as above 5.00 mg/kg.
For the compound `COc1ccc(CC(=O)Nc2ccc(C(C(C)C)(C(C)C)n3ccnc3)cc2)cc1OC` [Compound 762], the IC50 in assay [1] amounted to 40.8 nM. Further, the “LAD (lowest active dose)” value in the assay with Ovariectomized rats is on record as above 5.00 mg/kg.
Taken in the same sequence, the figures for `CC(C)C(c1ccc(NC(=O)Cc2ccc(Cl)cc2)cc1)(C(C)C)n1ccnc1` [Compound 763] were 5.62 nM and above 5.00 mg/kg.
Regarding `CC(C)C(c1ccc(NC(=S)Cc2ccc(Cl)cc2)cc1)n1ccnc1` (stereo not drawn) [Compound 764, 4-chloro-N-[4-[1-(1H-imidazol-1-yl)-2-methylpropyl]phenyl]benzenethane-thioamide], in assay [1] (MCF7), the IC50 was determined as 23.3 nM. Also, in the assay with Ovariectomized rats (Rattus norvegicus, po, read-out: LAD (lowest active dose)), the minimal effective dose was above 5 mg/kg.
Regarding `Cc1nccn1C(c1ccc(NC(=O)Nc2cccc(F)c2)cc1)C(C)C` (stereo not drawn) [Compound 773], the IC50 in assay [1] is above 100 nM. Also, the “LAD (lowest active dose)” value in the assay with Ovariectomized rats is recorded as above 10.00 mg/kg.
Take `O=C(Cc1ccc(Cl)cc1)Nc1ccc(C2(n3ccnc3)CCC2)cc1` [Compound 774]: the IC50 in assay [1] came to 5.27 nM. Also, the “LAD (lowest active dose)” value in the assay with Ovariectomized rats worked out at 10.00 mg/kg.
Consider `CC(=O)Nc1ccc(C2(n3ccnc3)CCCCC2)cc1` [Compound 776], for which the IC50 in assay [1] was found to be 4.39 nM. In the assay with Ovariectomized rats, the “LAD (lowest active dose)” value is given as above 20.00 mg/kg.
As for `CCC(CC)C(c1ccc(NC(=O)c2nc3ccccc3s2)cc1)n1ccnc1.O=C(O)C(=O)O` (stereo not drawn) [Compound 778], the IC50 in assay [1] is 75.9 nM. In addition, the “LAD (lowest active dose)” value with Ovariectomized rats is listed as 5.00 mg/kg.
